# Experimental data as given in patent publication US12065421B2, “Inhibitors of oplophorus luciferase-derived bioluminescent complexes” (priority 2018, dated 2024).
# pIC50: −log10 of the molar value.
# Target: T1, NanoBiT® HiBiT non-luminescent peptide and LgBiT non-luminescent polypeptide (HiBiT/LgBiT bioluminescent complex) (Oplophorus gracilirostris, UniProt Q9GV45, A31E/A60N/A81I/C191F/D135N/E192K/F58L/F95D/G184S/G42A/G62A/G78A/G94A/G98A/H120P/I103V/I117V/I134L/K70R/L176M/L195S/L54V/L73R/L99Q/M102E/N171T/N193K/P142E/Q151K/Q38E/Q45L/T186S/V71I/Y165I)
# T1 construct: fused on or other part: N-terminal Met-Val on LgBiT in place of the signal peptide (residues 1-27); The chain is split between residues 184 and 185 into LgBiT and the 11-residue HiBiT peptide (residues 185-195); C-terminal A196 is absent
# T1 sequence (Q9GV45 other isoform, or with tags, fused parts or gaps with the stated changes): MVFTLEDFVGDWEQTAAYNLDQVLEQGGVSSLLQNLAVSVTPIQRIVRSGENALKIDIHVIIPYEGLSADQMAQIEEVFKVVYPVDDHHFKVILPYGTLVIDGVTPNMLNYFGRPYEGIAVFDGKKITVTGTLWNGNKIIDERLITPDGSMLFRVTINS
# Test: biochemical
row,SMILES,pIC50
1,"COc1ccc(NS(=O)(=O)c2ccc(C)cc2)c(C(=O)Nc2ccc(C)cc2)c1 [JRW-1166, 5-methoxy-2-((4-methylphenyl)sulfonamido)-N-(p-tolyl)benzamide]",6.89
2,"COc1ccc(NS(=O)(=O)c2ccc(C)cc2)c(C(=O)Nc2cc3ccccc3s2)c1 [JRW-1167, N-(benzo[b]thiophen-2-yl)-5-methoxy-2-((4-methylphenyl)sulfonamido)benzamide]",7.70
3,"COc1ccc(C(=O)Nc2ccc(C)cc2)c(NS(=O)(=O)c2ccc(C)cc2)c1 [JRW-1202, 4-methoxy-2-((4-methylphenyl)sulfonamido)-N-(p-tolyl)benzamide]",6.74
4,"COc1ccc(C(=O)Nc2cc3ccccc3s2)c(NS(=O)(=O)c2ccc(C)cc2)c1 [JRW-1203, N-(benzo[b]thiophen-2-yl)-4-methoxy-2-((4-methylphenyl)sulfonamido)benzamide]",7.00
5,"COc1cccc(S(=O)(=O)Nc2ccccc2C(=O)Nc2ccc(C)cc2)c1 [JRW-1205, 2-((3-methoxyphenyl)sulfonamido)-N-(p-tolyl)benzamide]",7.54
6,"COc1cccc(S(=O)(=O)Nc2ccccc2C(=O)Nc2cc3ccccc3s2)c1 [JRW-1230, N-(benzo[b]thiophen-2-yl)-2-((3-methoxyphenyl)sulfonamido)benzamide]",8.11
7,"Cc1ccc(NC(=O)c2cc(O)ccc2NS(=O)(=O)c2ccc(C)cc2)cc1 [JRW-1232, 5-hydroxy-2-((4-methylphenyl)sulfonamido)-N-(p-tolyl)benzamide]",6.00
8,"Cc1ccc(NC(=O)c2ccccc2NS(=O)(=O)c2cccc(O)c2)cc1 [JRW-1236, 2-((3-hydroxyphenyl)sulfonamido)-N-(p-tolyl)benzamide]",7.48
9,"Cc1ccc(NC(=O)c2ccccc2NS(=O)(=O)c2cccc(-c3ccccc3)c2)cc1 [JRW-1248, 2-([1,1′-biphenyl]-3-sulfonamido)-N-(p-tolyl)benzamide]",6.55
10,"COC(=O)c1cccc(S(=O)(=O)Nc2ccccc2C(=O)Nc2ccc(C)cc2)c1 [JRW-1250, methyl 3-(N-(2-(p-tolylcarbamoyl)phenyl)sulfamoyl)benzoate]",6.27
11,"CC(=O)Nc1cccc(S(=O)(=O)Nc2ccccc2C(=O)Nc2ccc(C)cc2)c1 [JRW-1253, 2-((3-acetamidophenyl)sulfonamido)-N-(p-tolyl)benzamide]",5.64
12,"Cc1ccc(NC(=O)c2ccccc2NS(=O)(=O)c2cccc(N)c2)cc1 [JRW-1255, 2-((3-aminophenyl)sulfonamido)-N-(p-tolyl)benzamide]",7.22
13,"Cc1ccc(NC(=O)c2ccccc2NS(=O)(=O)c2cccc(CO)c2)cc1 [JRW-1261, 2-((3-(hydroxymethyl)phenyl)sulfonamido)-N-(p-tolyl)benzamide]",6.77
14,"CCCCOc1cccc(S(=O)(=O)Nc2ccccc2C(=O)Nc2ccc(C)cc2)c1 [JRW-1266, 2-((3-butoxyphenyl)sulfonamido)-N-(p-tolyl)benzamide]",5.82
15,"Cc1ccc(NC(=O)c2ccccc2NS(=O)(=O)c2cccc(Br)c2)cc1 [JRW-1267, 2-((3-bromophenyl)sulfonamido)-N-(p-tolyl)benzamide]",7.44
16,"CCCCNc1cccc(S(=O)(=O)Nc2ccccc2C(=O)Nc2ccc(C)cc2)c1 [JRW-1269, 2-((3-(butylamino)phenyl)sulfonamido)-N-(p-tolyl)benzamide]",5.96
17,"CCCCC#Cc1cccc(S(=O)(=O)Nc2ccccc2C(=O)Nc2ccc(C)cc2)c1 [JRW-1270, 2-((3-(hex-1-yn-1-yl)phenyl)sulfonamido)-N-(p-tolyl)benzamide]",5.92
18,"Cc1ccc(NC(=O)c2ccccc2NS(=O)(=O)c2cccc(C#CCO)c2)cc1 [JRW-1272, 2-((3-(3-hydroxyprop-1-yn-1-yl)phenyl)sulfonamido)-N-(p-tolyl)benzamide]",6.15
19,"Cc1ccc(NC(=O)c2ccccc2NS(=O)(=O)c2cccc(CCCO)c2)cc1 [JRW-1275, 2-((3-(3-hydroxypropyl)phenyl)sulfonamido)-N-(p-tolyl)benzamide]",6.47
